Patent publication US12233129B2, “Methods and compositions for the treatment of cancer” (priority 2019, dated 2025)
Entries after “also recorded” stand apart in the source; their conditions may differ.

Experiments:
Format in all cases: cell-based, human
HCT-116 p53+/+ = experiment: MTT cell viability assay
Protocol: (§1) We decided to confirm whether VTD-induced tumor suppression is indeed mediated via the UBXN2A-mot-2-p53 axis (FIG. 18H). After initial verification with WB (FIG. 18A), HCT-116 (p53+/+ and p53 −/−) and LoVo were treated with VTD for 24, 48, and 72 hours (FIG. 18B-D). […] We defined this phenomenon as a delayed cytotoxic response, since it occurs through UBXN2A transcription, as previously described for other anti-cancer agents. […] In the second set of experiments, we treated two stable UBXN2A silenced clones of HCT-116 along with controls with VTD. […] Staurosporine-treated cells were used as a positive control (S4F). […] Finally, to understand the contribution of mot-2 to the anti-cancer mechanism of VTD, we used a mot-2 inhibitor known as MKT-077 [7] along with VTD in well-differentiated SW-48 (WT-p53) colon cancer cells for 72 hours. Due to the critical role of mot-2 in the mitochondria, we could not use a silencing strategy for mot-2 in this set of experiments.
(§2) The viability of cells was calculated as % of control.
(§3) FIG. 18: Veratridine (VTD) functions via the UBXN2A-mot-2-p53 axis. (A) WB confirmed the presence and the absence of p53 protein in HCT-116 p53^(+/+) and HCT-116 p53^(−/−) cancer cell lines, respectively. […] (F) In another set of experiments, UBXN2A-silenced cells were treated with VTD (100, 200, and 300 μM) for 24 hours. Cells were then labelled with Sytox Red followed by flow cytometry analysis. […] (G) SW48 well-differentiated colon cancer cells with WT-p53 were treated with MKT-077 (5 mg/ml), an mot-2 inhibitor, along with VTD for 72 hours. […] (H) This flowchart recapped the sequence of proteins which activate and function upon VTD exposure to decrease cell viability. The data is shown as mean±SEM of three independent experiments (n=3) in triplicate where *p<0.05 using Benferroni's modified student's t-test.

LoVo = experiment: MTT cell viability assay
Protocol: as §1, §2, §3

HCT-116 p53−/− = experiment: MTT cell viability assay
Protocol: as §1, §2, §3

p53 = experiment: Western blot of p53 in cytoplasmic and nuclear fractions of HCT-116 cells; conditions: VTD 10 and 30 μM
From the text: We next performed a clonogenic survival assay (S4E) to determine colony formation in cancer cells in the presence and absence of VTD. […] At the same time, we measured the mot-2, p53, and UBXN2A protein levels in all these cell lines. […] To verify whether VTD-induced cell death is mediated through the UBXN2A-mot-2-p53 axis, we looked at the expression of p53 in the cytoplasm and nucleus of HCT-116 cells following VTD treatment. […] Due to a high cell death in higher doses of VTD, we could not use WB analysis for reliable p53 and UBXN2A detection and quantification. Finally, we checked the effect of VTD on non-cancerous cell lines. […]
Nuclear and cytoplasmic fractions were prepared from the cells using NE-PER Nuclear and Cytoplasmic Extraction Reagents (Pierce, IL, USA) according to the manufacturer's instructions. Protein concentrations were determined by BCA assay followed by SDSPAGE and WB analysis with the appropriate antibodies (Supplementary Table S3).
FIG. 17: Induction of apoptosis and in vitro cytotoxicity by VTD in a human cancer cell line with different statuses of p53 and mot-2. […] After incubation, dead cells were washed off, and the remaining attached cells were calculated by counting in five random fields using the Axiovert 200 M inverted microscope and AxioVision software (cell detachment assay). The % of cells attached was calculated as % of control cells. […]

[1] = system: SW480 colon cancer cell line; experiment: Flow cytometry of stem cell markers; conditions: VTD 72 hours
Protocol: FIG. 24 panels A-D are examples of FlowJo analysis of CD44 biomarker in SW480 cells treated with VTD for 72 hours.

Compound: COc1ccc(C(=O)O[C@H]2CC[C@@]3(C)[C@@H]4CC[C@H]5[C@]6(O)C[C@H](O)[C@@]7(O)[C@@H](CN8C[C@@H](C)CC[C@H]8[C@@]7(C)O)[C@]6(O)C[C@@]53O[C@]24O)cc1OC [VTD, Veratridine]
- cell viability (MTT) (HCT-116 p53+/+; 48 and 72 hours, compared with HCT-116 p53−/−): significantly lower
- cell viability (MTT) (HCT-116 p53+/+; 24 hour treatment): not sufficient to produce any cytotoxic or anti-proliferative effect
- cell viability (MTT) (LoVo; 48 and 72 hours): reduction of cell viability reached a maximum at 72 hours; also recorded: highest sensitivity to VTD
- cell viability (MTT) (LoVo; 24 hour treatment, higher doses): significantly decreases the viability
- cell viability (MTT) (HCT-116 p53−/−; 48 and 72 hours): started to respond to VTD at higher doses after 48 hours; also recorded: more resistance to VTD's effects
- cell viability (MTT) (HCT-116 p53−/−; 24 hour treatment): not sufficient to produce any cytotoxic or anti-proliferative effect
- p53 levels in cytoplasm and nucleus (WB) (p53): increases WT-p53 levels both in the cytoplasm and nucleus; also recorded: increases p53 in both cytoplasm and nucleus compartments in a dose-dependent manner
- CD44+ stem cell population [1]: significant reduction
- CD133+ stem cell population [1]: significant reduction
- LgR5+ stem cell population [1]: significant reduction
